Reference: patent publication US4742049A, “Semisynthetic erythromycin antibiotics” (Abbott Laboratories, priority 1986, dated 1988)
≈ marks a conversion by molar mass, not a printed value. Read-outs that look alike come from different tables or passages of the source.

Tests used:
Klebsiella pneumoniae = test: antimicrobial spectrum, agar dilution MIC; format: cell-based; conditions: strain 8045, BHI agar, 20-24 hours
[1] = system: gut contractions (stomach, duodenum, jejunum); conditions: dog, in vivo, iv, 4 mg/kg
Method: Compounds of this invention have been tested for gastrointestinal stimulating activity in a dog model at 4 mg/kg intravenously. Contractions in the gut were recorded with surgically implanted strain gauges. […] Ratios were calculated for the stomach, duodenum and jejunum, and a final arithmetic mean index was calculated and reported in Table 1.

Pseudomonas cepacia = test: antimicrobial spectrum, agar dilution MIC; format: cell-based; conditions: Burkholderia cepacia, strain 2961; BHI agar, 20-24 hours; read-out: MIC
Method: Erythromycin A was used for this purpose.
After incubation, each disk is read.

Acinetobacter SP = test: antimicrobial spectrum, agar dilution MIC; format: cell-based; conditions: strain CMX 669, BHI agar, 20-24 hours
Ent. aerogenes = test: antimicrobial spectrum, agar dilution MIC; format: cell-based; conditions: Klebsiella aerogenes, BHI agar, 20-24 hours
Lactobacillus Casei = test: antimicrobial spectrum, agar dilution MIC; format: cell-based; conditions: Lacticaseibacillus casei, ATCC7469, strain ATCC 7469; BHI agar, 20-24 hours
Micrococcus luteus = test: antimicrobial spectrum, agar dilution MIC; format: cell-based; conditions: 20-24 hours
Providencia stuartii = test: antimicrobial spectrum, agar dilution MIC; format: cell-based; conditions: strain CMX 640, BHI agar, 20-24 hours
Method: (§1) Twelve petri dishes containing successive aqueous dilutions of the test compound mixed with 10 ml of sterilized Brain Heart Infusion agar (Difco 0418-01-5) are prepared. Each plate is inoculated with 1:100 (or 1:10 for slow-growing strains, primarily Micrococcus and Streptococcus) dilutions of up to 32 different microorganisms, using a Steers replicator block. The inoculated plates are incubated at 35°-37° C. for 20-24 hours. In addition, a control plate, using BHI agar containing no test compound, is prepared and incubated at the beginning and end of each test.
(§2) An additional plate containing a compound having known susceptibility patterns for the organisms being tested and belonging to the same antibiotic class as the test compound is also prepared and incubated as a further control, as well as to provide test-to-test comparability.
(§3) After incubation, each disk is read. The MIC is defined as the lowest concentration of drug yielding no growth, a slight haze, or sparsely isolated colonies on the inoculum spot as compared to the growth control.

Strep. bovis = test: antimicrobial spectrum, agar dilution MIC; format: cell-based; conditions: Streptococcus equinus, strain A5169; BHI agar, 20-24 hours
Method: as §1, §2, §3

Strep. pyogenes = test: antimicrobial spectrum, agar dilution MIC; format: cell-based; conditions: Streptococcus pyogenes, BHI agar, 20-24 hours
Method: as §1, §2, §3

Staph. epidermidis = test: antimicrobial spectrum, agar dilution MIC; format: cell-based; conditions: Staphylococcus epidermidis, BHI agar, 20-24 hours
Method: as §1, §2, §3

Strep. agalactiae = test: antimicrobial spectrum, agar dilution MIC; format: cell-based; conditions: Streptococcus agalactiae, strain CMX 508; BHI agar, 20-24 hours
Method: as §1, §2, §3

Strep. faecium = test: antimicrobial spectrum, agar dilution MIC; format: cell-based; conditions: Enterococcus faecium, ATCC8043, strain ATCC 8043; BHI agar, 20-24 hours
Method: as §1, §2, §3

Pseudomonas aeruginosa = test: antimicrobial spectrum, agar dilution MIC; format: cell-based; conditions: Pseudomonas aeruginosa, BHI agar, 20-24 hours
Method: as §1, §2, §3

Staph. aureus = test: antimicrobial spectrum, agar dilution MIC; format: cell-based; conditions: Staphylococcus aureus, BHI agar, 20-24 hours
Method: as §1, §2, §3

E. coli = test: antimicrobial spectrum, agar dilution MIC; format: cell-based; conditions: Escherichia coli, BHI agar, 20-24 hours

CC[C@H]1OC(=O)[C@H](C)[C@@H](O[C@H]2C[C@@](C)(OC)[C@@H](O)[C@H](C)O2)[C@H](C)[C@@H](O[C@@H]2O[C@H](C)C[C@H](N(C)C)[C@H]2O)[C@](C)(OC)C[C@@H](C)C(=O)[C@H](C)[C@H]2N(C)C(=O)O[C@]12C [Example 4, 11-deoxy-6-O-methyl erythromycin A 11,12-(N-methyl)cyclic carbamate]
MIC (Klebsiella pneumoniae): 50 µg/mL (≈ 63.5 µM) | Gastrointestinal Motility Index [1]: 1.27 | MIC (Pseudomonas cepacia): 100 µg/mL (≈ 127 µM) | MIC (Acinetobacter SP): 12.5 µg/mL (≈ 15.9 µM) | MIC (Ent. aerogenes; ATCC10348, strain ATCC 10348): 50 µg/mL (≈ 63.5 µM) | MIC (Lactobacillus Casei): 0.01 µg/mL (≈ 0.0127 µM) | MIC (Micrococcus luteus; strain 4698, BHI agar): 0.05 µg/mL (≈ 0.0635 µM) | MIC (Micrococcus luteus; strain 9341, BHI agar): 0.01 µg/mL (≈ 0.0127 µM) | MIC (Providencia stuartii): > 100 µg/mL | MIC (Strep. bovis): 0.02 µg/mL (≈ 0.0254 µM) | MIC (Strep. pyogenes; strain 930): > 100 µg/mL | MIC (Strep. pyogenes; strain EES61): 0.01 µg/mL (≈ 0.0127 µM) | MIC (Staph. epidermidis; strain 3519): 0.2 µg/mL (≈ 0.254 µM) | MIC (Staph. epidermidis; strain 3519 RARI): 0.2 µg/mL (≈ 0.254 µM) | MIC (Strep. agalactiae): 0.02 µg/mL (≈ 0.0254 µM) | MIC (Strep. faecium): 0.05 µg/mL (≈ 0.0635 µM) | MIC (Pseudomonas aeruginosa; strain 5007): 100 µg/mL (≈ 127 µM) | MIC (Pseudomonas aeruginosa; strain BMH10): 50 µg/mL (≈ 63.5 µM) | MIC (Pseudomonas aeruginosa; strain K799/61, read-out: MIC): 0.78 µg/mL (≈ 0.991 µM) | MIC (Pseudomonas aeruginosa; strain K799/WT): 100 µg/mL (≈ 127 µM) | MIC (Staph. aureus; ATCC6538P, strain ATCC 6538P): 0.1 µg/mL (≈ 0.127 µM) | MIC (Staph. aureus; strain 45): 0.1 µg/mL (≈ 0.127 µM) | MIC (Staph. aureus; strain 45 RAR 2): 0.2 µg/mL (≈ 0.254 µM) | MIC (Staph. aureus; strain A5177): 0.39 µg/mL (≈ 0.496 µM) | MIC (Staph. aureus; strain CMX 686B): 0.1 µg/mL (≈ 0.127 µM) | MIC (E. coli; strain DC-2): 25 µg/mL (≈ 31.8 µM) | MIC (E. coli; strain H560): 12.5 µg/mL (≈ 15.9 µM) | MIC (E. coli; strain JUHL): 25 µg/mL (≈ 31.8 µM) | MIC (E. coli; strain KNK 437): 50 µg/mL (≈ 63.5 µM) | MIC (E. coli; strain SS): 0.1 µg/mL (≈ 0.127 µM)

CC[C@H]1OC(=O)[C@H](C)[C@@H](O[C@H]2C[C@@](C)(OC)[C@@H](O)[C@H](C)O2)[C@H](C)[C@@H](O[C@@H]2O[C@H](C)C[C@H](N(C)C)[C@H]2O)[C@](C)(OC)C[C@@H](C)C(=O)[C@H](C)[C@H]2N(C3CC3)C(=O)O[C@]12C [Example 5, 11-deoxy-6-O-methyl erythromycin A 11,12-(N-cyclopropyl)cyclic carbamate]
MIC (Klebsiella pneumoniae): 100 µg/mL (≈ 123 µM) | MIC (Pseudomonas cepacia): > 100 µg/mL | MIC (Acinetobacter SP): 25 µg/mL (≈ 30.7 µM) | MIC (Ent. aerogenes; ATCC13048, strain ATCC 13048, read-out: MIC): 100 µg/mL (≈ 123 µM) | MIC (Lactobacillus Casei): 0.05 µg/mL (≈ 0.0615 µM) | MIC (Micrococcus luteus; strain 4698, BHI agar): 0.2 µg/mL (≈ 0.246 µM) | MIC (Micrococcus luteus; strain 9341, BHI agar): 0.05 µg/mL (≈ 0.0615 µM) | MIC (Providencia stuartii): > 100 µg/mL | MIC (Strep. bovis): 0.02 µg/mL (≈ 0.0246 µM) | MIC (Strep. pyogenes; strain 930): > 100 µg/mL | MIC (Strep. pyogenes; strain EES61): 0.02 µg/mL (≈ 0.0246 µM) | MIC (Staph. epidermidis; strain 3519): 0.39 µg/mL (≈ 0.48 µM) | MIC (Staph. epidermidis; strain 3519 RARI): 0.39 µg/mL (≈ 0.48 µM) | MIC (Strep. agalactiae): 0.02 µg/mL (≈ 0.0246 µM) | MIC (Strep. faecium): 0.1 µg/mL (≈ 0.123 µM) | MIC (Pseudomonas aeruginosa; strain 5007): > 100 µg/mL | MIC (Pseudomonas aeruginosa; strain BMH10): 100 µg/mL (≈ 123 µM) | MIC (Pseudomonas aeruginosa; strain K799/61): 6.2 µg/mL (≈ 7.63 µM) | MIC (Pseudomonas aeruginosa; strain K799/WT): > 100 µg/mL | MIC (Staph. aureus; ATCC6538P, strain ATCC 6538P): 0.39 µg/mL (≈ 0.48 µM) | MIC (Staph. aureus; strain 45): 0.2 µg/mL (≈ 0.246 µM) | MIC (Staph. aureus; strain 45 RAR 2): 0.39 µg/mL (≈ 0.48 µM) | MIC (Staph. aureus; strain A5177): 1.56 µg/mL (≈ 1.92 µM) | MIC (Staph. aureus; strain CMX 686B): 0.39 µg/mL (≈ 0.48 µM) | MIC (E. coli; strain DC-2): 100 µg/mL (≈ 123 µM) | MIC (E. coli; strain H560): 25 µg/mL (≈ 30.7 µM) | MIC (E. coli; strain JUHL): 50 µg/mL (≈ 61.5 µM) | MIC (E. coli; strain KNK 437): 100 µg/mL (≈ 123 µM) | MIC (E. coli; strain SS): 0.2 µg/mL (≈ 0.246 µM)
